Measurements published in patent publication EP0598753B1, “MANGANESE COMPLEXES OF NITROGEN-CONTAINING MACROCYCLIC LIGANDS EFFECTIVE AS CATALYSTS FOR DISMUTATING SUPEROXIDE” (MONSANTO COMPANY, priority 1991, dated 1993).

Experiments:
[1] = system: colonic myeloperoxidase activity; assay: Mouse acetic acid-induced colitis model (colonic myeloperoxidase); type: in vivo; conditions: 30 mg/kg dose, intracolonic, 30 minutes before acetic acid, tissue after 24 hours
Method: Mouse colitis model. […] Mice were lightly anesthetized. A solution of 3% (v/v) aqueous acetic acid was instilled intracolonically via a flexible polyethylene tube. After 24 hours, the animals were killed and colonic tissue samples were obtained. Tissue samples were assessed biochemically for the neutrophil marker enzyme, myeloperoxidase (MPO). The colonic tissue samples were minced, homogenized in detergent, and sonicated. After centrifugation, enzyme activities were assayed spectrophotometrically by determining the decomposition of peroxide using o-dianisidine as the hydrogen donor. Data was obtained as the absorbance (460 nm) at 20 minutes. Test agents were given intracolonically at a dose of 30 mg/kg body weight 30 minutes before acetic acid instillation as a sonicated suspension in 0.5% aqueous methyl cellulose. Vehicle was given to appropriate acetic acid control animals. Normal tissue was obtained from control animals which received only vehicle. Colonic myeloperoxidase activities were determined as units/g wet weight of tissue. Reduction of colonic myeloperoxidase activity by test agents in acetic acid-treated mice is expressed as % inhibition (Table 2). Colonic myeloperoxidase activity correlated with the degree of tissue inflammation as assessed by visual and histological analysis.

[2] = system: rat lung fibroblast cells; assay: Nitric oxide: rat lung fibroblast cGMP reporter assay; type: cell-based; conditions: for cGMP: mean
Method: The assay is described in Ishii, I., Sheng, H., Warner, T.D., Förstermann, V. and Murad, F., Am. J. Physiol., 261 (Heart Circ. Physiol. 30); H598-H603, 1991 modified in that the nitric oxide synthase (NOS) is added directly to the cells. Rat lung fibroblast cells were grown to confluence on a 48-well tissue culture plate containing Earle's salts medium. The medium is removed and the cells washed twice with minimal essential medium buffered with Earle's salts. A nitric oxide (NO) generating system consisting of enzyme (NOS), nicotinamide adenine dinucleotide phosphate (NADPH), arginine and required cofactors, such as tetrahydrobiopterin and flavin adenine dinucleotide (FAD) is subsequently added to each well. In cases where the complex of Example 1 was added, addition occurred with the NO generating system. After five minutes of incubation, each reaction is terminated, cellular cGMP extracted and measured by radioimmunoassay.
The capacity of the rat lung fibroblast cells to respond to NO was confirmed by adding sodium nitroprusside (SNP), a compound which spontaneously degrades to NO and results in increased cGMP levels. Next, crude NOS (prepared from endotoxin-treated RAW 264.7 cells) was added to the rat lung fibroblast cells to determine their response to enzymatically generated NO. A dose-dependent increase in cGMP with increasing amounts of enzyme was obtained. Superoxide dismutase (SOD) addition augmented cellular cGMP levels.

rat aortic rings = assay: Rat aortic ring assay
Method: The aortic rings were prepared using a Furchgott procedure (described in Furchgott, R.F., "Role of Endothelium in Response of Vascular Smooth Muscle", Circ. Res. 53: 557-573, 1983) with changes in tension recorded. In all preparations, initial tension (1.5 grams) was produced with 30 mM KCl.

conscious rats = assay: Rat hemodynamic model (mean blood pressure, conscious rats); type: in vivo, male Sprague-Dawley rats
Method: Catheters were inserted into the femoral vein, femoral artery and bladder of male Sprague-Dawley rats (250-325 grams total body weight) anesthetized with ether. The rats were then placed in individual restraining cages and allowed to regain consciousness. Blood pressure was measured by a standard pressure transducer and physiograph. Increasing doses of the manganese(II) complex of Example 1 (prepared in an aqueous solution) were given as single bolus injections. The results of the tests can be found in Figure 1. The blood pressure values represent the mean arterial blood pressure from the mean values of 3 rats. […] Thus, the potentiation by the complex of Example 1 of the vasorelaxant effects of NO is consistent with the proposed mechanism of action as an SOD mimic.

[3] = biological target: T1, nitric oxide synthase (NOS) (Mus musculus, UniProt P29477); assay: NOS activity measured by citrulline production; type: biochemical
T1 construct: crude NOS (prepared from endotoxin-treated RAW 264.7 cells); endogenous in cells; host or cells: endotoxin-treated RAW 264.7 cells (crude enzyme preparation)
T1 sequence (P29477 1-1144): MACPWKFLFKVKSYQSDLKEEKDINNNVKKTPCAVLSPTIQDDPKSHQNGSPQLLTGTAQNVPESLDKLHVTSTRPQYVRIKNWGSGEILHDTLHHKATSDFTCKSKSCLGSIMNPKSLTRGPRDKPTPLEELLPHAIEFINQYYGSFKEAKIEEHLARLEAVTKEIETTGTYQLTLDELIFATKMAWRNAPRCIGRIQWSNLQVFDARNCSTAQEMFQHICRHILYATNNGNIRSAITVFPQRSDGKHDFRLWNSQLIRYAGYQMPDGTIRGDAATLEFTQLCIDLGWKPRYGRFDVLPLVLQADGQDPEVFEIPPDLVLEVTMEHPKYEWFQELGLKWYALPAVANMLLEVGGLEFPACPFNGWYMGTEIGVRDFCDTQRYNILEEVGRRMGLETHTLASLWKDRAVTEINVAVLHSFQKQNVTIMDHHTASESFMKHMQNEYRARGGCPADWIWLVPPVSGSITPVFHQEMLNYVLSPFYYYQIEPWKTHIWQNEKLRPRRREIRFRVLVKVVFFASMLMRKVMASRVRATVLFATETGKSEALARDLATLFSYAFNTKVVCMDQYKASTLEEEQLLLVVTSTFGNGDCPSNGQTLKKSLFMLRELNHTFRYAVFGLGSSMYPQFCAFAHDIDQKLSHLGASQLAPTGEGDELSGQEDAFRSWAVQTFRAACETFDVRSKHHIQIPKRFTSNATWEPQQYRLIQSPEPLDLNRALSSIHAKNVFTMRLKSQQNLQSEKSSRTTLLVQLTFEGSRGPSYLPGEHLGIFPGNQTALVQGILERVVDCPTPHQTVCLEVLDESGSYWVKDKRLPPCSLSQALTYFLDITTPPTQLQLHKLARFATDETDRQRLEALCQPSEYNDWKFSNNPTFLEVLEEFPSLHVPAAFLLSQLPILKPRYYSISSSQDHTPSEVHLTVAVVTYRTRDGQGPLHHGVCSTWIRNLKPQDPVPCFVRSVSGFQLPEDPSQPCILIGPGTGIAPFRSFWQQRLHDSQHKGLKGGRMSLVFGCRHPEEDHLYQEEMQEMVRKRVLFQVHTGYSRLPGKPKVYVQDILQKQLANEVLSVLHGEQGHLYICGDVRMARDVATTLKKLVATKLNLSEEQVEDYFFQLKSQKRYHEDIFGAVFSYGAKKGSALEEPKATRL

[4] = system: human aortic endothelial cells (HAE cells)
Excerpt: (§1) Human peripheral blood neutrophils were isolated from fresh venous blood of healthy volunteers. EDTA anticoagulated blood was separated using a single step density centrifugation (Polymorphprep; Nycomed Pharma, Oslo, Norway) followed by several washes in Hank's balanced salt solution supplemented with 0.5% BSA (Bovine Serum Albumin) (HBSSB) and the hypertonic lysis of erythrocytes. Neutrophils were counted via Coulter electronic particle counter and resuspended in HBSSB supplemented with 25% Endothelial Basal Medium (EBM), (Clonetics Corporation, San Diego, CA) at a concentration of 5 x 10^6 polymorphonuclear leukocytes (PMN)/ml.
(§2) The cytotoxic effects of stimulated neutrophils on endothelial cells were determined using a ^51Cr-release assay as previously described (Moldow, C.F., and Jacob, H.S. (1984) Methods Enzymol. 105, 378-385). Confluent monolayers of human aortic endothelial cells (HAE cells; Clonetics) grown in 96-well culture plates were prelabeled with 1 µCi/well ^51Cr (Na2 ^51Cr2O4, New England Nuclear, Boston, MA). The cells were incubated for 18 h at 37°C, then cytokine-activated with 10 Units/well human recombinant tumor necrosis factor-a (hrTNF-α; Monsanto Company, St. Louis, MO) for 4 h at 37°C. The cells were washed twice to remove unincorporated radioactivity with Hank's balanced salt solution supplemented with 0.5% BSA. To assess inhibition of PMN-mediated cytotoxicity, manganese(II) complexes at various doses (0-300 µM) were added to five replicate wells/dose of HAE cells immediately prior to the addition of PMN. Suspensions of PMN in HBSSB supplemented with 25% Endothelial Basal Medium were added to the wells at a neutrophil to endothelial cell ratio of 50:1. The PMN were allowed to adhere for 15 minutes at 37°C, primed with 125 Units/well hrTNF-α (Berkow, R.L., Wang, D., Larrick, J.W., Dodson, R.W., and Howard, T.H. (1987) J. Immunol. 139, 3783-3791; Varani, J.; Bendelow, M. J. Sealey, D. E.; Kunkel, S. L.; Gannon, D. E.; Ryan, U.S.; and Ward, P.A. (1987) Lab. Invest., 59, 292-295) for 10 minutes, and stimulated with human recombinant complement component C5a (Sigma Chemical, St. Louis, MO). […] After an additional incubation of 4 hours at 37°C, 200 µl of the 250 µl reaction volume (soluble fraction) was removed to a tube for counting. The cells were washed twice with 200 µl HBSSB (nonadherent fraction) and the washes pooled with the soluble fraction. The adherent fraction was collected by lysing the HAE cells with 200 µl 1N NaOH for 30 minutes and removing to separate tubes. Both fractions were analyzed by gamma scintillation spectrometry. The percentage cytotoxicity was calculated by the following formula: % Cytotoxicity =(cpm (soluble + nonadherent fractions))/(cpm (soluble + nonadherent + adherent fractions))x 100 [formula] Specific cytotoxicity reflects the difference between ^51Cr-release induced by stimulated PMN and unstimulated PMN. The IC50 values for the manganese(II) complexes for protection against neutrophil-mediated cytotoxicity were determined from a computer-driven logistic regression equation from a plot of % specific cytotoxicity versus the concentration of the manganese(II) complex.

[5] = system: human aortic endothelial cells (HAE cells); assay: Neutrophil-mediated cytotoxicity assay (51Cr-release); conditions: 50% inhibition of specific cytotoxicity; human neutrophil-mediated killing of human aortic endothelial cells
Excerpt: as §1, §2

SMILES: C1CNCCNCCNCCNCCN1.[Cl-].[Cl-].[Mn+2] [Example 1, [Manganese(II)dichloro(1,4,7,10,13-Pentaazacyclopentadecane)]]
- % Inhibition of Colonic Myeloperoxidase Activity [1]: 69%
- cGMP ([2]; NOS + complex 0.0001mM): 19.3 fmol/well/10
- cGMP ([2]; NOS + complex 0.001mM): 21.7 fmol/well/10
- cGMP ([2]; NOS + complex 0.01mM): 43.7 fmol/well/10
- cGMP ([2]; NOS + complex 0.10mM): 54.7 fmol/well/10
- cGMP ([2]; NOS + complex 1.0mM): 60.3 fmol/well/10
- cGMP ([2]; complex alone, 1mM, no NOS): 11.7 fmol/well/10
- basal levels of cGMP, in words ([2]; complex alone, 1 millimolar): not increased
- cGMP levels, in words ([2]; with NO generating system, 1 micromolar to 1 millimolar): dose-dependent increase in cGMP levels
- effect on the relaxation response to acetylcholine, in words (rat aortic rings; complex 0.5 and 5.0 micromolar, acetylcholine 0.1 and 1.0 micromolar): additive effect
- effect on the relaxation response to sodium nitroprusside, in words (rat aortic rings; complex 0.5 and 5.0 micromolar, sodium nitroprusside 0.001 to 10 micromolar): additive effect
- maximum relaxation (rat aortic rings; endothelium and dose-dependent from 0.05 to 300 micromolar, 30 mM KCl): 45%
- augmentation of cellular cGMP levels (rat aortic rings; rat aortic rings, 5 micromolar for 1 min.): 2.5 fold
- effect on mean blood pressure, in words (conscious rats; increasing doses as single bolus injections, aqueous solution, data in Figure 1): blood pressure drop
- duration of the blood pressure drop (conscious rats; single bolus injections): 3 to 5 min
- NOS activity as measured by citrulline production [3]: does not increase NOS activity
- protection against human neutrophil-mediated cytotoxicity, in words [4]: protective against human neutrophil-mediated cytotoxicity
- IC50 [5]: 25 µM
